# Biological target: PD-1/PD-L1 (Homo sapiens, UniProt Q9NZQ7)
# Assay: TR-FRET PD-1/PD-L1 binding inhibition at the molecular level (free proteins)
# Conditions: Tag1-PD-L1 and Tag2-PD-1 proteins, twelve concentrations from 200 nM, 2 hours at room temperature, read-out: FRET assay (IC50)
# Procedure, shortened: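 HTRF read-out at 665/620 nm after 2 h at room temperature. Detection used anti-Tag1 Eu cryptate plus anti-Tag2 XL665 antibodies. Tagged PD-L1 and PD-1 proteins were pre-mixed with compound across twelve […] 1:2 dilutions starting at 200 nM.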
# PD-1/PD-L1, sequence (Q9NZQ7 19-238 limits assumed): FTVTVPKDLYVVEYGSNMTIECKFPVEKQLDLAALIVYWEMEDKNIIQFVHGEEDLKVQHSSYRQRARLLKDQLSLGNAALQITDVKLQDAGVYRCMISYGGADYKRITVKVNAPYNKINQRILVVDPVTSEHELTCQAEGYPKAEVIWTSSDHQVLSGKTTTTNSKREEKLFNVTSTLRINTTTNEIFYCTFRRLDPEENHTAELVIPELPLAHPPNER
row,SMILES,IC50 [nM]
1,"O=C1CC[C@@H](CNC2CCCn3nc(-c4cccc(-c5cccc(Nc6nccc7cc(CN8CC[C@@H](O)C8)cnc67)c5Cl)c4Cl)cc32)N1 (stereo partly drawn) [Compound 182, (5S)-5-(((2-(2,2'-dichloro-3'-((3-(((R)-3-hydroxypyrrolidin-1-yl)methyl)-1,7-naphthyridin-8-yl)amino)-[1,1'-biphenyl]-3-yl)-4,5,6,7-tetrahydropyrazolo[1,5-a]pyridin-4-yl)amino)methyl)pyrrolidin-2-one]",10 to 100
2,"O[C@@H]1CCN(Cc2cnc3c(Nc4cccc(-c5cccc(-c6cc7n(n6)CCCC7N6CC[C@@H](O)C6)c5Cl)c4Cl)nccc3c2)C1 (stereo partly drawn) [Compound 183, (3R)-1-(2-(2,2'-dichloro-3'-((3-(((R)-3-hydroxypyrrolidin-1-yl)methyl)-1,7-naphthyridin-8-yl)amino)-[1,1'-biphenyl]-3-yl)-4,5,6,7-tetrahydropyrazolo[1,5-a]pyridin-4-yl)pyrrolidin-3-ol]",< 10
3,"O=C(O)[C@@H]1CCN(C2CCCn3nc(-c4cccc(-c5cccc(Nc6nccc7cc(CN8CC[C@@H](O)C8)cnc67)c5Cl)c4Cl)cc32)C1 (stereo partly drawn) [Compound 184, (3R)-1-(2-(2,2'-dichloro-3'-((3-(((R)-3-hydroxypyrrolidin-1-yl)methyl)-1,7-naphthyridin-8-yl)amino)-[1,1'-biphenyl]-3-yl)-4,5,6,7-tetrahydropyrazolo[1,5-a]pyridin-4-yl)pyrrolidine-3-carboxylic acid]",< 10
4,"O=C(O)CNC1CCCn2nc(-c3cccc(-c4cccc(Nc5nccc6cc(CN7CC[C@@H](O)C7)cnc56)c4Cl)c3Cl)cc21 (stereo partly drawn) [Compound 185, 2-((2-(2,2'-dichloro-3'-((3-(((R)-3-hydroxypyrrolidin-1-yl)methyl)-1,7-naphthyridin-8-yl)amino)-[1,1'-biphenyl]-3-yl)-4,5,6,7-tetrahydropyrazolo[1,5-a]pyridin-4-yl)amino)acetic acid]",< 10
5,"COc1cc(-c2cccc(-c3cccc(NC(=O)c4cc5n(n4)CCCC5NCC(=O)O)c3Cl)c2Cl)cc(F)c1CNCCO (centres unmarked) [Compound 186, 2-((2-((2,2'-dichloro-3""-fluoro-4""-(((2-hydroxyethyl)amino)methyl)-5""-methoxy-[1,1':3',1""-terphenyl]-3-yl)carbamoyl)-4,5,6,7-tetrahydropyrazolo[1,5-a]pyridin-4-yl)amino)acetic acid]",< 10
6,"COc1cc(-c2cccc(-c3cccc(NC(=O)c4cc5n(n4)CCCC5NCC(=O)O)c3Cl)c2Cl)cc(F)c1CN1CC[C@@H](O)C1 (stereo partly drawn) [Compound 187, 2-((2-((2,2'-dichloro-3""-fluoro-4""-(((R)-3-hydroxypyrrolidin-1-yl)methyl)-5""-methoxy-[1,1':3',1""-terphenyl]-3-yl)carbamoyl)-4,5,6,7-tetrahydropyrazolo[1,5-a]pyridin-4-yl)amino)acetic acid]",< 10
7,"COc1cc(-c2cccc(-c3cccc(NC(=O)c4cc5n(n4)CCCC5NCC(=O)O)c3Cl)c2Cl)cc(F)c1CNC[C@@H]1CCC(=O)N1 (stereo partly drawn) [Compound 188, 2-((2-((2,2'-dichloro-3""-fluoro-5""-methoxy-4""-(((((S)-5-oxopyrrolidin-2-yl)methyl)amino)methyl)-[1,1':3',1""-terphenyl]-3-yl)carbamoyl)-4,5,6,7-tetrahydropyrazolo[1,5-a]pyridin-4-yl)amino)acetic acid]",< 10
8,"COc1cc(-c2cccc(-c3cccc(NC(=O)c4cc5n(n4)CCCC5NCC(=O)O)c3Cl)c2Cl)cc(F)c1CNCCNC(C)=O (centres unmarked) [Compound 189, 2-((2-((4""-(((2-acetamidoethyl)amino)methyl)-2,2'-dichloro-3""-fluoro-5""-methoxy-[1,1':3',1""-terphenyl]-3-yl)carbamoyl)-4,5,6,7-tetrahydropyrazolo[1,5-a]pyridin-4-yl)amino)acetic acid]",< 10

# From patent publication EP4755888A1 (ILAb Co., Ltd., priority 2023, dated 2025)
